Test results published in patent publication US12285407B2, “Bis-indolylmethane derivatives and uses thereof” (The University of The West Indies, priority 2018, dated 2025).
Like-named read-outs stand apart in the source and are kept apart here. One block for each compound: values may come before it.

Key:
Escherichia coli = experiment: Checkerboard synergy (FICI) of antibiotics with SP-BIM; set-up: MIC SP-BIM 13 only / MIC in combination: Antibiotic: unit not given beside the values; settings: for MIC: 24 h
Klebsiella pneumoniae = experiment: as above; format: cell-based; settings: for MIC: 24 h, antibiotic alone, read-out: MIC antibiotic only
Streptococcus pneumoniae [1] = experiment: as above; format: cell-based; settings: for MIC: 24 h, antibiotic alone, read-out: MIC antibiotic only
Staphylococcus aureus = experiment: as above; format: cell-based; settings: Staphylococcus aureus, Staphylococcus aureus; for MIC: 24 h, antibiotic alone, read-out: MIC antibiotic only
Enterococcus faecium = experiment: as above; format: cell-based; settings: Enterococcus faecium, Enterococcus faecium; for MIC: 24 h, antibiotic alone, read-out: MIC antibiotic only
Bacillus cereus = experiment: as above; format: cell-based
Candida albicans = experiment: as above; set-up: MIC SP-BIM 13 only / MIC in combination: Antibiotic / MIC antibiotic only: unit not given beside the values
[2] = system: Salmonella typhimurium ATCC 14028; experiment: Broth microdilution MIC of SP-BIMs; format: cell-based; settings: Salmonella enterica, read-out: MIC Salmonella tvpkimurium ATCC 14028
Excerpt: Reference microorganisms used in this study included: Bacillus cereus (American Type Culture Collection (ATCC) No. 14579), Streptococcus pyogenes (ATCC No. 19615), Staphylococcus aureus (ATCC No. 12600), Enterococcus faecium (ATCC No. 19434), Corynebacterium diphtheriae (ATCC No. 27010), Escherichia coli (ATCC No. 35218), Salmonella typhimurium (ATCC No. 14028), Pseudomonas aeruginosa (ATCC No. 27853), Klebsiella pneumoniae (ATCC No. 49472), and Candida albicans (ATCC No. 22972).
Prior to each experiment, cultures were streaked onto clean BHI agar plates and incubated at 35° C. for 24 hours. Colonies of the respective cultures were selected and inoculated in phosphate buffer saline (pH 7.5) to a 0.5 McFarland turbidity standard (equivalent to 10^8 CFU mL^−1). The bacterial suspension was then diluted 1:100 in cation adjusted Mueller Hinton Broth (ca-MHB) (Oxoid Ltd, Basingstoke, Hampshire, England).
Stock solutions (50 mg mL^−1) of the SP-BIM test compounds were prepared in DMSO and stored at 4° C. Working preparations of each compound was made up to 1 mg/mL in sterile deionized water with a final DMSO concentration of 10%.
To assess the antibiotic properties of the library of SP-BIMs, the broth microdilution assay was performed in 96-well microplates according to the Clinical and Laboratory Standards Institute 2014 Guidelines (CLSI 2014). The broth microdilution assay was used to determine the minimum inhibitory concentration (MIC). […] Bacterial cells (˜10^6 CFU mL^−1) were inoculated into cation adjusted-Mueller Hinton broth containing the test compound in a twofold serial dilution ranging between 250 μg mL^−1 and 0.02 μg mL^−1. Plates were incubated at 35° C. for 18 hours after which 50 μL of 5% resazurin solution was added to each well. Resazurin is a blue dye which, upon reduction by living cells, turns to a pink resorufin product. Plates were shaken for 1 hour after the addition of the dye. The MIC was recorded as the well with the lowest concentration of test compound where no color change was observed.

[3] = system: Enterococcus faecium ATCC 19434; experiment: Broth microdilution MIC of SP-BIMs; format: cell-based; settings: ATCC19434, SP-BIM alone, read-out: MIC Enterococcus faecium ATCC 19434
[4] = system: Candida albicans ATCC 22972; experiment: Broth microdilution MIC of SP-BIMs; format: cell-based; settings: ATCC22972, SP-BIM alone, read-out: MIC Candida albicans ATCC 22972
[5] = system: Corynebacterium diphtheriae ATCC 27010; experiment: Broth microdilution MIC of SP-BIMs; format: cell-based; settings: ATCC27010, SP-BIM alone, read-out: MIC Corynebacterium diphtheriae ATCC 27010
[6] = system: Staphylococcus aureus ATCC 12600; experiment: Broth microdilution MIC of SP-BIMs; format: cell-based; settings: ATCC12600, SP-BIM alone, read-out: MIC Staphylococcus aureus ATCC 12600
[7] = system: Streptococcus pyogenes ATCC 19615; experiment: Broth microdilution MIC of SP-BIMs; format: cell-based; settings: ATCC19615, SP-BIM alone, read-out: MIC Streptococcus pyogenes ATCC 19615
[8] = system: Klebsiella pneumoniae ATCC 49472; experiment: Broth microdilution MIC of SP-BIMs; format: cell-based; settings: ATCC49472, SP-BIM alone, read-out: MIC Klebisella pneumoniae ATCC 49472
[9] = system: Bacillus cereus ATCC 14579; experiment: Broth microdilution MIC of SP-BIMs; format: cell-based; settings: ATCC14579, SP-BIM alone, read-out: MIC Bacillus cereus ATCC 14579
[10] = system: Escherichia coli ATCC 35218; experiment: Broth microdilution MIC of SP-BIMs; format: cell-based; settings: ATCC35218, SP-BIM alone, read-out: MIC Escherichia coli ATCC 35218
[11] = system: Pseudomonas aeruginosa ATCC 27853; experiment: Broth microdilution MIC of SP-BIMs; format: cell-based; settings: ATCC27853, SP-BIM alone, read-out: MIC Pseudomonas aeruginosa ATCC 27853
Streptococcus pneumoniae [12] = experiment: Adjuvant broth microdilution (antibiotic MIC with SP-BIM at 50 μg/mL); format: cell-based; settings: Streptococcus pneumoniae, Streptococcus pneumonia, SP-BIM at 50 μg mL^−1
[13] = MIC of the antibiotic in combination with SP-BIM 13
[14] = SP-BIM 9 in combination with the labelled antibiotic
[15] = SP-BIM 13 in combination with the labelled antibiotic
[16] = antibiotic in combination with SP-BIM 9
[17] = antibiotic in combination with SP-BIM 13
[18] = Streptococcus pneumonia (title: Streptococcus pyogenes), antibiotic + SP-BIM 9
[19] = Streptococcus pneumoniae, antibiotic + SP-BIM 13

MIC (Escherichia coli; read-out: MIC antibiotic only, Escherichia coli, antibiotic alone): 2 µg/mL
MIC (Escherichia coli; read-out: MIC antibiotic only, Escherichia coli, antibiotic alone, SP-BIM 9 checkerboard): 2 µg/mL
MIC in combination: Antibiotic (Escherichia coli; [13]): 1
MIC (Klebsiella pneumoniae; SP-BIM 9 checkerboard): 2 µg/mL
MIC (Klebsiella pneumoniae; SP-BIM 13 checkerboard): 2 µg/mL
MIC in combination, Antibiotic (Klebsiella pneumoniae; [16]): 0.5 µg/mL
MIC in combination, Antibiotic (Klebsiella pneumoniae; [17]): 0.5 µg/mL
MIC (Streptococcus pneumoniae [1]; Streptococcus pneumoniae, Streptococcus pneumonia (title: Streptococcus pyogenes), SP-BIM 9 checkerboard): 2 µg/mL
MIC (Streptococcus pneumoniae [1]; Streptococcus pneumoniae, Streptococcus pneumoniae, SP-BIM 13 checkerboard): 2 µg/mL
MIC in combination, Antibiotic (Streptococcus pneumoniae [1]; Streptococcus pneumoniae, antibiotic in combination with SP-BIM 13): 1 µg/mL
MIC (Staphylococcus aureus; SP-BIM 9 checkerboard): 1 µg/mL
MIC (Staphylococcus aureus; SP-BIM 13 checkerboard): 1 µg/mL
MIC in combination, Antibiotic (Staphylococcus aureus; [16]): 0.5 µg/mL
MIC in combination, Antibiotic (Staphylococcus aureus; [17]): 0.5 µg/mL
MIC (Enterococcus faecium; SP-BIM 9 checkerboard): 8 µg/mL
MIC (Enterococcus faecium; SP-BIM 13 checkerboard): 8 µg/mL
MIC in combination, Antibiotic (Enterococcus faecium; [17]): 1 µg/mL
MIC (Bacillus cereus; 24 h, antibiotic alone, SP-BIM 9 checkerboard, read-out: MIC antibiotic only): 8 µg/mL
MIC in combination, SP-BIM 9 (Bacillus cereus; SP-BIM 9 concentration in combination with the labelled antibiotic): 16 µg/mL
MIC in combination, Antibiotic (Bacillus cereus; [16]): 2 µg/mL
MIC (Candida albicans; 24 h, read-out: MIC antibiotic only): 63 µg/mL
MIC in combination: Antibiotic (Candida albicans; [13]): 63
SMILES: O=C(O)c1cn(C2CC2)c2cc(N3CCNCC3)c(F)cc2c1=O [Ciprofloxacin, ciprofloxacin]
FIC of SP-BIM 9 (Escherichia coli; [14]): 0.128
FIC of SP-BIM 13 (Escherichia coli; [15]): 0.1
Interpretation (Escherichia coli; antibiotic + SP-BIM 9): Synergy (Synergy: FICI≤0.5)
Σ FIC (Escherichia coli; antibiotic + SP-BIM 9): <0.4
Interpretation (Escherichia coli; antibiotic + SP-BIM 13): Additive (Additive: FICI>0.5-1.0)
Σ FIC (Escherichia coli; antibiotic + SP-BIM 13): <0.6
FIC of antibiotic (Escherichia coli; combination with SP-BIM 13): 0.5
FIC of antibiotic (Escherichia coli; in combination with SP-BIM 9): 0.25
FIC of SP-BIM 9 (Klebsiella pneumoniae; [14]): 0.252
FIC of SP-BIM 13 (Klebsiella pneumoniae; [15]): 0.1
Interpretation (Klebsiella pneumoniae; antibiotic + SP-BIM 9): Synergy (Synergy: FICI≤0.5)
Σ FIC (Klebsiella pneumoniae; antibiotic + SP-BIM 9): <0.5
Interpretation (Klebsiella pneumoniae; antibiotic + SP-BIM 13): Synergy (Synergy: FICI≤0.5)
Σ FIC (Klebsiella pneumoniae; antibiotic + SP-BIM 13): <0.4
FIC of antibiotic (Klebsiella pneumoniae; in combination with SP-BIM 9): 0.25
FIC of antibiotic (Klebsiella pneumoniae; in combination with SP-BIM 13): 0.3
FIC of SP-BIM 9 (Streptococcus pneumoniae [1]; Streptococcus pneumonia (title: Streptococcus pyogenes), SP-BIM 9 in combination with the labelled antibiotic): 0.26
Interpretation (Streptococcus pneumoniae [1]; [18]): Synergy (Synergy: FICI≤0.5)
Σ FIC (Streptococcus pneumoniae [1]; [18]): <0.27
FIC of antibiotic (Streptococcus pneumoniae [1]; Streptococcus pneumonia (title: Streptococcus pyogenes), in combination with SP-BIM 9): 0.01
FIC of SP-BIM 13 (Streptococcus pneumoniae [1]; Streptococcus pneumoniae, SP-BIM 13 in combination with the labelled antibiotic): 0.5
Interpretation (Streptococcus pneumoniae [1]; [19]): Additive (Additive: FICI>0.5-1.0)
Σ FIC (Streptococcus pneumoniae [1]; [19]): <1.0
FIC of antibiotic (Streptococcus pneumoniae [1]; Streptococcus pneumoniae, in combination with SP-BIM 13): 0.5
FIC of SP-BIM 9 (Staphylococcus aureus; [14]): 0.02
FIC of SP-BIM 13 (Staphylococcus aureus; [15]): 0.5
Interpretation (Staphylococcus aureus; antibiotic + SP-BIM 9): Synergy (Synergy: FICI≤0.5)
Σ FIC (Staphylococcus aureus; antibiotic + SP-BIM 9): <0.52
Interpretation (Staphylococcus aureus; antibiotic + SP-BIM 13): Additive (Additive: FICI>0.5-1.0)
Σ FIC (Staphylococcus aureus; antibiotic + SP-BIM 13): 1.0
FIC of antibiotic (Staphylococcus aureus; in combination with SP-BIM 9): 0.50
FIC of antibiotic (Staphylococcus aureus; in combination with SP-BIM 13): 0.5
FIC of SP-BIM 13 (Enterococcus faecium; [15]): 0.5
Interpretation (Enterococcus faecium; antibiotic + SP-BIM 13): Additive (Additive: FICI>0.5-1.0)
Σ FIC (Enterococcus faecium; antibiotic + SP-BIM 13): 0.6
FIC of antibiotic (Enterococcus faecium; in combination with SP-BIM 13): 0.1
FIC of SP-BIM 9 (Bacillus cereus; [14]): 0.064
FIC of SP-BIM 13 (Bacillus cereus; [15]): 0.0
Interpretation (Bacillus cereus; antibiotic + SP-BIM 9): Synergy (Synergy: FICI≤0.5)
Σ FIC (Bacillus cereus; antibiotic + SP-BIM 9): <0.3
Interpretation (Bacillus cereus; antibiotic + SP-BIM 13): Additive (Additive: FICI>0.5-1.0)
Σ FIC (Bacillus cereus; antibiotic + SP-BIM 13): 1.0
FIC of antibiotic (Bacillus cereus; in combination with SP-BIM 9): 0.25
FIC of antibiotic (Bacillus cereus; in combination with SP-BIM 13): 1.00
FIC of SP-BIM 13 (Candida albicans; [15]): 1.0
Interpretation (Candida albicans; antibiotic + SP-BIM 13): Indifferent (Indifferent: FICI>1.0-4.0)
Σ FIC (Candida albicans; antibiotic + SP-BIM 13): <2.0
FIC of antibiotic (Candida albicans; combination with SP-BIM 13): 1.0

SMILES: CN(C)c1ccc(C(c2c[nH]c3ccccc23)c2c[nH]c3ccccc23)cc1 [SP-BIM 2, [bis(indoly-3-yl)-4-dimethylaminophenyl]methane]
MIC [2]: 250 µg/mL
MIC [3]: > 250 µg/mL
MIC [4]: 250 µg/mL
MIC [5]: > 250 µg/mL
MIC [6]: > 250 µg/mL
MIC [7]: > 250 µg/mL
MIC [8]: > 250 µg/mL
MIC [9]: > 250 µg/mL
MIC [10]: > 250 µg/mL
MIC [11]: 250 µg/mL
MIC (Streptococcus pneumoniae [12]; read-out: MIC of Kanamvcin with SP-BIM): 125 µg/mL
MIC (Streptococcus pneumoniae [12]; read-out: MIC of Vancomvcin with SP-BIM): 1 µg/mL
